Measured values published in publication PMC6353801, “Enhanced Anti-diabetic Effect of Berberine Combined With Timosaponin B2 in Goto-Kakizaki Rats, Associated With Increased Variety and Exposure of Effective Substances Through Intestinal Absorption” (Frontiers in Pharmacology, 2019).

Test: Transport in Caco-2 cells
Type: in vitro ADME, human
Conditions: human
Procedure: The culture medium was changed every other day for the first 7 days and then daily for the next 14 days. […] Prior to the transport experiments, the cell monolayers were washed three times with HBSS at 37°C. […] At the same time, the corresponding opposite side was filled with medium as the receiving chamber. After incubation for 30, 60, 90, and 120 min, 250-μl aliquots of the medium was taken from the receiving chamber at each time point, and prepared for analysis by HPLC–MS/MS. […] where (ΔQ/Δt) is the linear slope of the drug concentration in the receptor chamber over time, A represents the surface area of the membrane (1.12 cm^2), and C0 is the initial concentration of drug in the donor chamber. The efflux ratio (ERpermeability) for BL to AP and AP to BL transport was defined by the following equation: […] where Papp (BL–AP) and Papp (AP–BL) are the apparent permeability of drugs from the basolateral (BL) to apical (AP) and AP to BL sides of the monolayer, respectively.

[1] = Caco-2, BBR 10 μM in presence of TB-2 (5 μM), n = 3

Work on `COc1ccc2cc3[n+](cc2c1OC)CCc1cc2c(cc1-3)OCO2` [BBR, berberine] yielded an efflux ratio at 10 μM (Caco-2, Caco-2, BBR 10 μM in presence of TB-2 (5 μM), read-out: ERpermeability (efflux ratio)) of 31.1, a Papp A→B at 10 μM [1] of 0.048 ± 0.014 ×10⁻⁶ cm/s and a Papp B→A at 10 μM [1] of 1.5 ± 0.499 ×10⁻⁶ cm/s.
